Experimental data published in paper PMC3094704, “S-Petasin, the Main Sesquiterpene of Petasites formosanus, Inhibits Phosphodiesterase Activity and Suppresses Ovalbumin-Induced Airway Hyperresponsiveness” (Evidence-based Complementary and Alternative Medicine : eCAM, 2011).

Key:
[1] = test system: OVA-sensitized and challenged BALB/c mice; assay: Inflammatory cells in BALF; format: in vivo, mouse
Procedure: (§1) Ten female BABL/c mice in each group were sensitized by an intraperitoneal (i.p.) injection of 20 μg of OVA emulsified in 2.25 mg aluminum hydroxide gel in a total volume of 100 μL on days 0 and 14. The mice were challenged via the airway by 1% OVA in saline for 30 min on Days 28, 29 and 30 by ultrasonic nebulization. Six weeks after the last of three primary OVA challenges, the mice were exposed to 1% OVA for 30 min by nebulization as a secondary challenge. AHR was assessed on Day 74 (48 h after 1% OVA provocation) in each group. […] For comparison, sham-treated mice were sensitized but challenged with saline instead of 1% OVA (non-challenged). The vehicle, a mixture of alcohol : DMSO : 30% HPβCD : saline (0.5 : 0.5 : 1 : 8 , v/v), or S-petasin was injected at a volume of 0.01 mL/g of body weight. AHR was measured in unrestrained animals by barometric plethysmography using a whole-body plethysmograph (WBP) and analyzed using software of Life Science Suite P3 Analysis Modules (Gould, LDS Test and Measurement LLC, Valley View, OH, USA). The mice were placed into the main chamber of the WBP, and the baseline enhanced pause (P enh) value was determined. Then the mice were nebulized first with phosphate-buffered saline (PBS), and subsequently with increasing doses (6.25–50 mg/mL) of MCh for 3 min for each nebulization, followed by readings of breathing parameters for 3 min after each nebulization with determination of P enh values. Twenty-four hours after the P enh determination, these mice were anesthetized with pentobarbital (50 mg/kg, i.p.), and lavaged via a tracheal tube with PBS (1 × 1.0 mL, 37°C). After lavage, blood was collected from the jugular vein and allowed to sit so that it would coagulate. The collected bronchoalveolar lavage fluid (BALF) and coagulated blood were, respectively, centrifuged at 630 g for 7 min and at 3700 g for 10 min at 4°C, respectively. After centrifugation, the supernatants of BALF and serum were stored at −20°C until the determinations of cytokines, including interleukin (IL)-2, IL-4, IL-5, tumor necrosis factor (TNF)-α and interferon (IFN)-γ by flow cytometric methods using mouse Th1/Th2 cytokine CBA kits, of total immunoglobulin E (IgE), and of total IgG2a using enzyme-linked immunosorbent assay (ELISA) kits (Pharmingen, San Diego, CA, USA) according to the respective recommendations of the manufacturer. OVA-specific IgE was measured as described previously with some modifications. Wells were coated with 100 μL of OVA (20 μg/mL) instead of the capture antibody. Levels are expressed in arbitrary units, where one arbitrary unit equals the optical density of the sample divided by the optical density of unchallenged mouse serum or BALF (standard). The pellet from BALF was re-suspended in ACK lysing buffer (1.658 g NH4Cl, 0.2 g KHCO3 and 1.44 mg EDTA in 200 mL of water) to lyse the residual erythrocytes in each sample. The number of inflammatory cells was counted using a hemocytometer (Hausser Scientific, Horsham, PA, USA). Cytospun slides were stained and differentiated in a blinded fashion by counting at least 100 cells under light microscopy.

PDE5 = biological target: T1, PDE5 (Cavia porcellus, UniProt H0VD23); assay: Inhibition of PDE5 activity (two-step radioenzymatic assay); format: biochemical, guinea pig; settings: mean ± SEM (n); read-out: IC50 on PDE isozyme 5
T1 construct: partially separated from guinea pig lungs and hearts; from tissue; host or cells: guinea pig lungs and hearts
Procedure: Activities of PDE1–5, partially separated from guinea pig lungs and hearts according to the method described by Ko et al., were measured with a two-step procedure according to the method of Thompson and Appleman, using cAMP with [^3H]-cAMP or cGMP with [^3H]-cGMP as substrates. The enzyme pμreparation (25 μL) was incubated for 30 min at 37°C in a total assay volume of […] containing 50 mM Tris-HCl (pH 7.4), 3 mM MgCl2, 1 mM dithiothreitol, 0.05% BSA, 1 μM cAMP with 0.2 μCi [^3H]-cAMP as a substrate alone or in the presence of 0.1 units calmodulin with 10 μM CaCl2 or 5 μM cGMP, and 1 μM cGMP with 0.2 μCi [^3H]-cGMP as another substrate alone or in the presence of 0.1 units calmodulin with 10 μM CaCl2. […] The reagents and homogenate were mixed on ice, and the reaction was initiated by transferring the mixture to a water bath at 37°C. Following a 30-min incubation, the reaction was stopped by transferring the reaction vessel to a bath of boiling water for 3 min. After cooling on ice, 20 μL of a 1 mg/mL solution of C. atrox snake venom was added to the reaction mixture, and the mixture was incubated at 37°C for 10 min. Unreacted [^3H]-cAMP or [^3H]-cGMP was removed by the addition of 500 μL of a 1-in-1 Tris-HCl (40 mM) buffer suspension of Dowex resin (1 × 8-200) with incubation on ice for 30 min. […]

female BALB/c mice = assay: Xylazine/ketamine-induced anesthesia; format: in vivo, mouse; settings: 10–100 μmol/kg s.c., 1 h before anesthesia
Procedure: According to the method described by Robichaud et al. and modified by us, S-petasin (10–100 μmol/kg, s.c.) or rolipram (0.01–1 μmol/kg, s.c.), a reference drug, was injected into 8–12 week-old female BALB/c mice 1 h or 15 min, respectively, prior to an i.p. injection of xylazine (10 mg/kg)/ketamine (70 mg/kg). The vehicle (control) for S-petasin or for rolipram was a mixture of alcohol : DMSO : 30% HPβCD : saline (0.5 : 0.5 : 1 : 8 , v/v), or alcohol : DMSO : PEG 400 : saline (0.5 : 0.5 : 1 : 8, v/v), respectively. After loss of the righting reflex (i.e., when a mouse remained on its back and no longer spontaneously righted itself to a prone position), the duration of anesthesia was measured until its return as an endpoint.

[2] = test system: OVA-sensitized and challenged BALB/c mice; assay: Cytokines in BALF (CBA flow cytometry); format: in vivo, mouse
Procedure: as §1

[3] = 30 μmol/kg s.c., exception at 10 μmol/kg

C=C(C)[C@@H]1C[C@@]2(C)C(=CC1=O)CC[C@@H](OC(=O)/C=C\SC)[C@@H]2C [S-Petasin]
not affected: Macrophages in BALF ([1]; 10–30 μmol/kg s.c.)
significantly suppressed: Increase in lymphocytes in BALF [1, 3] | Increase in eosinophils in BALF ([1]; 10–30 μmol/kg s.c.) | Increase in neutrophils in BALF ([1]; 10–30 μmol/kg s.c.) | Increase in total inflammatory cells in BALF ([1]; 10–30 μmol/kg s.c.) | Increase in IL-4 level in BALF [2, 3] | Increase in IFN-γ level in BALF ([2]; 10–30 μmol/kg s.c.) | Increase in IL-2 level in BALF ([2]; 10–30 μmol/kg s.c.) | Increase in IL-5 level in BALF ([2]; 10–30 μmol/kg s.c.) | Increase in TNF-α level in BALF ([2]; 10–30 μmol/kg s.c.)
> 100 µM: IC50 (PDE5)
did not affect: Duration of xylazine/ketamine-induced anesthesia (female BALB/c mice)
